Laboratory results reported in US10550171B2, “Immunomodulatory peptides and methods of use thereof” (THE GOVERNORS OF THE UNIVERSITY OF ALBERTA, priority 2012, dated 2020).

What was measured:
[1] = tested on: CMV (Towne strain); experiment: CMV replication plaque assay in HFF-1 cells; type: cell-based, cytomegalovirus (CMV); conditions: HFF-1 cells pre-treated 2 h with peptide 10 μM; for inhibitory effect on CMV replication (viral growth curves, plaque assay): CMV Towne MOI 0.03, day 4 and day 6
Procedure: The data are depicted in FIG. 1. […] HFF-1 cells were pre-treated for 2 h with peptides (10 μM), then washed and infected with CMV (Towne strain, MOI 0.03) and viral growth curves were generated.
Peptides PRT ([…]; SEQ ID NO:23). LKY (ASVTFNLFRLLTRDLKY; SEQ ID NO: 15), and LNC (ASVTFNLFRLLTRDLNC; SEQ ID NO: 16) were pre-incubated at a concentration of 10 μM with HFF-1 cells (ATCC HS97FS. SCRC1041, and CCD1112SK). The cells were washed, then challenged with IL-28B (100 ng/ml) for 30 minutes. Peptides REV ([…]; SEQ ID NO:24), FKG ([…]; SEQ ID NO:25), and APP ([…]; SEQ ID NO:26) were pre-incubated for 2 hours with IL-28B, then added to HFF1 for 30 minutes. Proteins were harvested and STAT2 phosphorylation was determined by Western blot analysis. The effect of the peptides on CMV replication in HFF-1 cells was also tested. HFF-1 cells were pre-treated for 2 hours with peptides (10 μM) or control. CMV replication was determined 4 days later using plaque assays. The data are depicted in FIGS. 19 and 20. In FIG. 19, the data are from Western blot experiments. HFF11 cells were pre-treated with individual peptides for 2 hours, then challenged with IL28B for 30 minutes. Results were normalized to STAT2 and β-tubulin baseline expression. In FIG. 20, the data are from plaque assays. HFF1 cells were pre-treated with individual peptides for 2 hours, then infected with CMV Towne strain (multiplicity of infection 0.03). Plaque forming units (PFU) at day 4 were determined.

[2] = target: T1, binding of IL29 to IL-28R (Homo sapiens, UniProt Q8IU57); experiment: ELISA assay, effect of peptides on binding of IL29 to IL-28R; conditions: for inhibition of the binding of IL29 to IL-28R: increasing peptide concentrations
T1 sequence (Q8IU57 21-228 limits assumed): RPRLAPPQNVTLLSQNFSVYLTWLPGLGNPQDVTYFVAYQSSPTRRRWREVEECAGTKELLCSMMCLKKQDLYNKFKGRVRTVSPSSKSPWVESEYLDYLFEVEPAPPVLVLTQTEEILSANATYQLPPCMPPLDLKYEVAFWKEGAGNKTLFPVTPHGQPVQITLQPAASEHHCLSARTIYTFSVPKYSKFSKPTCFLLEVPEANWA

[3] = tested on: STAT1 phosphorylation; experiment: STAT-1 phosphorylation in THP1-derived macrophages, flow cytometry; type: cell-based; conditions: IL28B 100 ng/mL, peptide 1 at 10 μM for 90 min before IL28B, peptide 17 added together with IL28B
Procedure: The effect of peptide 1 and peptide 17 on STAT-1 phosphorylation in macrophages was tested using flow cytometry.
STAT1 phosphorylation is one of the earliest events that occur after the IFN receptor is activated. THP1 cells (a monocytic cell line) were stimulated for 3 days with phorbol-12-myristate-13-acetate (PMA) and then rested for another 5 days in standard cultivation methods (37° C. 5% CO2) with RPMI containing 10% fetal calf serum (FCS). After 3 days, the PMA was removed and fresh media added. This treatment induces maturation of THP1, such that the THP1 cells are induced to express macrophage markers (Daigneault et al. (2010) PLoSOne 5:e8668). Next, the cells were treated: (i) either for 90 min with peptide 1 at a concentration of 10 μM and then added IL28B at 100 ng/mL or (ii) peptide 17 was added directly together with IL28B. “Scramble p1” is a control peptide with the amino acid sequence of p1 scrambled. Scramble p17” is a control peptide with the amino acid sequence of p17 scrambled.

[4] = tested on: STAT2 phosphorylation; experiment: STAT2 phosphorylation in HFF-1 cells challenged with IL-28B, Western blot; type: cell-based, human; conditions: for blocking of STAT-2 phosphorylation: peptide pre-incubated 2 hours with IL-28B, then added to HFF1 for 30 minutes; for reduction in STAT2-phosphorylation: HFF-1 cells pre-incubated with peptide 10 μM, washed, IL-28B 100 ng/ml 30 minutes, normalized to STAT2 and β-tubulin
[5] = target: T2, binding of IL28A to IL-28R (Homo sapiens, UniProt Q8IU57); experiment: ELISA assay, effect of peptides on binding of IL28A to IL-28R; conditions: increasing peptide concentrations
T2 sequence (Q8IU57 21-228 limits assumed): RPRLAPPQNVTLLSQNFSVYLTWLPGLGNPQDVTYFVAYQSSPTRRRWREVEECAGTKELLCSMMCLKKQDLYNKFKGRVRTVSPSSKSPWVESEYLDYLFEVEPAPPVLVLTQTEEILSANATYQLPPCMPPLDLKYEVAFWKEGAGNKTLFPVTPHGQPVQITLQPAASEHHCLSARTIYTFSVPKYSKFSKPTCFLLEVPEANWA

[6] = target: T3, IL28R1 (Homo sapiens, UniProt Q8IU57); experiment: Biacore assay, binding of interferon lambda ligands to IL28R1
T3 sequence (Q8IU57 21-520): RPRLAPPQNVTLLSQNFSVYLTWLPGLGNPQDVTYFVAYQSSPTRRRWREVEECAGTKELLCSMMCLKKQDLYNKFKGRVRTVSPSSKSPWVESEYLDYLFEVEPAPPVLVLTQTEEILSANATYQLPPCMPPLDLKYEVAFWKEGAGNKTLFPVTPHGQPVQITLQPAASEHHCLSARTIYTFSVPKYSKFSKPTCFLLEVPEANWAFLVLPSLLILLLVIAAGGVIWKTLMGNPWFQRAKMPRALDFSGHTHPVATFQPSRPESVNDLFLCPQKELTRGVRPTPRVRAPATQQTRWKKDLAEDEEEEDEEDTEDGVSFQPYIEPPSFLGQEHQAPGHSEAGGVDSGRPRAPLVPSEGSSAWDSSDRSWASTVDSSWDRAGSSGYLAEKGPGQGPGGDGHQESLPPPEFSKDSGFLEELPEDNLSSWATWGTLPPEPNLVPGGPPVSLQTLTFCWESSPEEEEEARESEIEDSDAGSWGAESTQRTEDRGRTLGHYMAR
Description: FIG. 9 depicts binding affinity (KD values in PM) of ligands IL28A, IL28B, and IL29, and of peptides 1, 2, 6, 7, and 15-18, for IL28R1. […] In […], the KD values indicate differences between peptides.
FIG. 10 depicts the effect of peptides on binding of IL29 to IL-28R. Binding of IL29 was disrupted by addition of increasing peptide concentrations.

Question: With ELASFKKARDALEESLKL [Peptide 1] as the molecule, how does the “inhibitory effect on CMV replication (viral growth curves, plaque assay)” value (from here on “inhibitory effect on CMV replication”) [1] read?
Answer: strong inhibitory effects

Question: What about the “IC50 for inhibition of IL29 binding, as excess of peptide over the natural ligand” value [2] of the same molecule?
Answer: 50 time excess of peptide over the natural ligand

Question: What about the “inhibition of the binding of IL29 to IL-28R” value [2] of the same molecule?
Answer: highly potent

Question: What about the STAT1 phosphorylation [3] of the same molecule?
Answer: reduce STAT1 phosphorylation

Question: For VAYQSSPTRRRWREV [Peptide 8], which “blocking of STAT-2 phosphorylation” value [4] is on record?
Answer: None of peptides REV, FKG, and APP blocked

Question: Which “inhibition of the binding of IL28A to IL-28R” value [5] does the source give for LLKDCRCHSRLFPRTWDLRQ [Peptide 16] here?
Answer: potent

Question: With SEYLDYLFEVEPAPP [Peptide 10] as the molecule, how does the “blocking of STAT-2 phosphorylation” value [4] read?
Answer: None of peptides REV, FKG, and APP blocked

Question: For “MMCLKKQDLYNKFKG (MMCLKKQDLYNKFRG) [Peptide 9]”, which “blocking of STAT-2 phosphorylation” value [4] is on record?
Answer: None of peptides REV, FKG, and APP blocked

Question: Which “inhibition of the binding of IL28A to IL-28R” value [5] does the source give for LLKDCKCRSRLFPRTWDLRQ [Peptide 15] here?
Answer: potent

Question: What does the source list for KLKNWSCSSPVFPGNWDLRL [Peptide 17]?
Answer: inhibition of the binding of IL28A to IL-28R [5]: potent; STAT1 phosphorylation [3]: reduce STAT1 phosphorylation

Question: With ASVTFNLFRLLTRDLKY [Peptide 6] as the molecule, how does the “inhibitory effect on CMV replication” value [1] read?
Answer: strong inhibitory effects

Question: And the “inhibition of the binding of IL29 to IL-28R” value [2]?
Answer: highly potent

Question: And the “reduction in STAT2-phosphorylation” value [4]?
Answer: 40%

Question: Which “lower CMV replication (plaque forming units)” value ([1]; CMV Towne MOI 0.03, day 4 after infection) does the source give for ASVTFNLFRLLTRDLNC [Peptide 7] here?
Answer: 2.5 log10

Question: What about the “inhibitory effect on CMV replication” value [1] of the same molecule?
Answer: strong inhibitory effects

Question: What about the “reduction in STAT2-phosphorylation” value [4] of the same molecule?
Answer: 34%

B1: IL29: polypeptide of about 200 amino acids which binds a heterodimeric IL-28 receptor complex (protein, listed as Homo sapiens)
chain: MAAAWTVVLVTLVLGLAVAGPVPTSKPTTTGKGCHIGRFKSLSPQELASFKKARDALEESLKLKNWSCSSPVFPGNWDLRLLQVRERPVALEAELALTLKVLEAAAGPALEDVLDQPLHTLHHILSQLQACIQPQPTAGPRPRGRLHHWLHRLQEAPKKESAGCLEASVTFNLFRLLTRDLKYVADGNLCLRTSTHPEST
Question: For B1, which “binding affinity towards IL28R1” value [6] is on record?
Answer: highest binding affinity of all Interferon lambdas

B2: IL28B: polypeptide of about 196 amino acids which binds a heterodimeric IL-28R complex (protein, listed as Homo sapiens)
chain: MTGDCMPVLVLMAAVLTVTGAVPVARLRGALPDARGCHIAQFKSLSPQELQAFKRAKDALEESLLLKDCKCRSRLFPRTWDLRQLQVRERPVALEAELALTLKVLEATADTDPALGDVLDQPLHTLHHILSQLRACIQPQPTAGPRTRGRLHHWLHRLQEAPKKESPGCLEASVTFNLFRLLTRDLNCVASGDLCV
Question: How did the “binding affinity towards IL28R1” value [6] turn out when B2 was run?
Answer: significant lower binding affinity
